Laboratory results published in the supplement of paper PMC11061612.

How the values were obtained:
Experiment in all cases: combination Emax (second highest fraction inhibited in the dose matrix, 72 h); higher = more inhibition; extreme values may be limits of the assay
[1] = test system: CHSA8926 (Chondrosarcoma)
Summary of the method: (§1)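 After 24 hours at 37°C and 5% CO2 in 1536-well plates, cells in DMEM/F12 or RPMI plus 10% FBS received two-drug dose matrices for 72 hours. Viability came from CellTiter-Glo 2.0 luminescence and was scaled as inhibition, anchored at 0 by vehicle wells and at 1 by blank wells. Combination Emax is taken as the second-highest inhibition in the matrix, and Bliss excess as the observed combination effect less EA + EB − EA·EB, with EA and EB the single-agent effects.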

[2] = test system: JHH-4 (Hepatocellular Carcinoma)
Summary of the method: as §1

[3] = test system: RPMI-8226 (Plasma Cell Myeloma)
Summary of the method: as §1

[4] = test system: H9 (T-Cell Non-Hodgkin's Lymphoma)
Summary of the method: as §1

[5] = test system: HCC1187 (Breast Carcinoma)
Summary of the method: as §1

[6] = test system: NCI-H520 (Squamous Cell Lung Carcinoma)
Summary of the method: as §1

[7] = test system: IM-95 (Gastric Carcinoma)
Summary of the method: as §1

[8] = test system: SUP-B15 (B-Lymphoblastic Leukemia)
Summary of the method: as §1

[9] = test system: ESO51 (Esophageal Adenocarcinoma)
Summary of the method: as §1

[10] = test system: VMRC-RCZ (Kidney Carcinoma)
Summary of the method: as §1

[11] = test system: KU812 (Chronic Myelogenous Leukemia)
Summary of the method: as §1

RD (Rhabdomyosarcoma) = test system: RD (Rhabdomyosarcoma)
Summary of the method: as §1

[12] = test system: SK-GT-4 (Esophageal Adenocarcinoma)
Summary of the method: as §1

[13] = test system: HCC1419 (Breast Carcinoma)
Summary of the method: as §1

[14] = test system: KYSE-270 (Esophageal Squamous Cell Carcinoma)
Summary of the method: as §1

[15] = test system: T-T (Esophageal Squamous Cell Carcinoma)
Summary of the method: as §1

SJSA-1 (Osteosarcoma) = test system: SJSA-1 (Osteosarcoma)
Summary of the method: as §1

[16] = test system: KY821 (Acute Myeloid Leukemia)
Summary of the method: as §1

[17] = test system: SNU-398 (Hepatocellular Carcinoma)
Summary of the method: as §1

[18] = test system: KP-3 (Pancreatic Carcinoma)
Summary of the method: as §1

| Compound | combination Emax [1] | combination Emax [2] | combination Emax [3] | combination Emax [4] | combination Emax [5] | combination Emax [6] | combination Emax [7] | combination Emax [8] | combination Emax [9] | combination Emax [10] | combination Emax [11] | combination Emax (RD (Rhabdomyosarcoma)) | combination Emax [12] | combination Emax [13] | combination Emax [14] | combination Emax [15] | combination Emax (SJSA-1 (Osteosarcoma)) | combination Emax [16] | combination Emax [17] | combination Emax [18] |
| --- | --- | --- | --- | --- | --- | --- | --- | --- | --- | --- | --- | --- | --- | --- | --- | --- | --- | --- | --- | --- |
| Cc1c2c(nn1C)CSCc1cc(n(C)n1)CSc1cc(c3ccccc3c1)OCCCc1c(C(=O)O)n(C)c3c-2c(Cl)ccc13 [AZD5991] + CN(C)CCCOc1ccc(-c2ccc3ncc4c(c3c2)n(C2CCOCC2)c(=O)n4C)cn1 [AZD0156] (first compound max 1 µM, 7x7, partner max 1 µM) | 0.497 | 0.331 | 0.963 | 0.834 | 0.988 | 0.509 | 0.824 | 1 | 0.205 | 0.21 | 0.828 | 0.603 | 0.277 | 0.385 | 0.542 | 0.901 | 0.322 | 1 | 1 |  |
| Cc1c2c(nn1C)CSCc1cc(n(C)n1)CSc1cc(c3ccccc3c1)OCCCc1c(C(=O)O)n(C)c3c-2c(Cl)ccc13 [AZD5991] + C[C@@H]1COCCN1C2=NC(=NC(=C2)C3(CC3)[S@](=N)(=O)C)C4=C5C=CNC5=NC=C4 [AZD6738] (first compound max 1 µM, 7x7, partner max 10 µM) | 0.643 | 0.369 | 1 | 1 | 1 | 0.619 | 0.859 | 1 | 0.747 |  | 0.902 | 0.739 | 0.526 | 0.275 | 0.892 | 0.932 | 0.47 | 1 | 1 | 0.377 |
| Cc1c2c(nn1C)CSCc1cc(n(C)n1)CSc1cc(c3ccccc3c1)OCCCc1c(C(=O)O)n(C)c3c-2c(Cl)ccc13 [AZD5991] + Cn1cnc2c(F)c(Nc3ccc(Br)cc3Cl)c(C(=O)NOCCO)cc21 [Selumetinib] (first compound max 1 µM, 7x7, partner max 3 µM) | 0.303 | 0.492 | 0.96 | 1 | 0.986 | 0.176 | 0.957 | 1 | 0.361 | 0.214 | 0.949 | 0.625 | 0.574 | 0.284 | 0.76 | 0.936 | 0.457 | 1 | 1 |  |
| C[C@@H]1COCCN1c1cc(C2([S@](C)(=N)=O)CC2)nc(-c2ccnc3[nH]ccc23)n1 [AZD6738] + O=C(c1cc(Cc2n[nH]c(=O)c3ccccc23)ccc1F)N1CCN(C(=O)C2CC2)CC1 [Olaparib] (first compound max 10 µM, 7x7, partner max 10 µM) | 0.36 | 0.251 | 0.96 | 0.911 | 0.532 | 0.752 | 0.459 | 0.969 | 0.555 | 0.319 | 0.806 | 0.332 | 0.51 | 0.191 | 0.794 | 0.448 | 0.377 | 0.97 | 0.354 |  |
| CC(=O)c1c(C)c2cnc(Nc3ccc(N4CCNCC4)cn3)nc2n(C2CCCC2)c1=O [Palbociclib] + Cn1cnc2c(F)c(Nc3ccc(Br)cc3Cl)c(C(=O)NOCCO)cc21 [Selumetinib] (first compound max 10 µM, 7x7, partner max 10 µM) | 0.178 | 0.59 | 0.547 | 0.956 | 0.129 | 0.679 | 0.315 | 0.661 | 0.601 | 0.115 | 0.904 | 0.569 | 0.566 |  | 0.252 | 0.46 | 0.424 | 0.861 | 0.376 | 0.244 |
| CC(=O)Nc1cccc(-n2c(=O)n(C3CC3)c(=O)c3c(Nc4ccc(I)cc4F)n(C)c(=O)c(C)c32)c1 [Trametinib] + Cc1nc(-c2cn3c(n2)-c2ccc(-c4cnn(C(C)(C)C(N)=O)c4)cc2OCC3)n(C(C)C)n1 [Taselisib] (first compound max 1 µM, 7x7, partner max 10 µM) |  | 0.997 | 0.755 | 0.984 | 0.456 | 0.65 | 0.584 | 1 | 0.987 | 0.308 | 0.921 | 0.972 | 0.954 | 0.649 | 0.8 | 0.903 | 0.699 | 0.97 | 0.56 | 0.446 |
